Experimental data taken from ChEMBL document CHEMBL2202983, “Structure-anti-leukemic activity relationship study of ortho-dihydroxycoumarins in U-937 cells: key role of the δ-lactone ring in determining differentiation-inducing potency and selective pro-apoptotic action” (Bioorg Med Chem, 2012).
Blank lines part the entries; values can stand above or below the compound they belong to. Activity calls are given as the source filed them. The rule behind the calls is not given here.

What was measured:
U-937 [1] = test: Cytotoxicity against human U937 cells after 48 hrs by trypan blue assay; type: functional; details: U-937, 48 h
U-937 [2] = test: Antiproliferative activity against human U937 cells assessed as incorporation of [3H]-methyl-thymidine after 12 hrs by scintillation counting; type: functional, cell-based
[3] = Pro-oxidant activity in 0.1 M potassium phosphate buffer at pH 7.4 assessed as increase of oxidation potential by cyclic voltammetry analysis; type: physicochemical
U-937 [4] = test: Induction of cell differentiation in human U937 cells assessed as increase of CD11b and CD14 expression at 500 uM after 72 hrs by FACS flow cytometer analysis; type: functional, cell-based
U-937 [5] = test: Induction of apoptosis in human U937 cells assessed as activation of caspase-3 at 500 uM after 24 hrs by colorimetric assay; type: functional, cell-based
U-937 [6] = test: Induction of apoptosis in human U937 cells assessed as activation of caspase-3 at 1000 uM after 48 hrs by colorimetric assay; type: functional, cell-based
U-937 [7] = test: Induction of apoptosis in human U937 cells assessed as reduction of normal cells at 1000 uM after 24 hrs by Annexin V-FITC double staining; type: functional, cell-based
U-937 [8] = test: Induction of apoptosis in human U937 cells assessed as phosphatidylserine expression in plasma membrane at 1000 uM after 24 hrs by Annexin V-FITC double staining; type: functional, cell-based
U-937 [9] = test: Inhibition of clonogenic activity in human U937 cells assessed as reduction of colony formation in soft agar at 100 to 250 uM after 24 hrs using crystal violet staining; type: functional, cell-based
U-937 [10] = test: Induction of cell differentiation in human U937 cells assessed as increase of rhC5a-induced response at 250 to 500 uM after 72 hrs by FACS flow cytometer analysis; type: functional, cell-based
Jurkat [11] = test: Induction of apoptosis in human Jurkat cells assessed as activation of caspase-3 at 500 uM after 24 hrs by colorimetric assay; type: functional, cell-based
U-937 [12] = test: Induction of DNA damage in human U937 cells; type: functional, cell-based
Jurkat [13] = test: Cytotoxicity against human Jurkat at 250 uM after 48 hrs by trypan blue assay; type: functional, cell-based
Jurkat [14] = test: Induction of apoptosis in human Jurkat cells at 500 uM after 48 hrs by Annexin V-FITC double staining; type: functional, cell-based
Jurkat [15] = test: Induction of apoptosis in human Jurkat cells assessed as activation of caspase-3-mediated PARP cleavage at 500 uM after 24 hrs by colorimetric assay; type: functional, cell-based
U-937 [16] = test: Pro-oxidant activity in human U937 cells assessed as DCF-DA oxidation at 10 to 250 uM after 48 hrs by fluorescence assay; type: functional, cell-based
[17] = Induction of free radicals production in carbonate buffer at pH 9 by electron spin resonance analysis; type: physicochemical
[18] = Induction of free radicals production in RPMI 1640 medium at pH 7.4 by electron spin resonance analysis; type: physicochemical
U-937 [19] = test: Induction of cell differentiation in human U937 cells assessed as increase of CD88 expression at 250 to 500 uM after 72 hrs by FACS flow cytometer analysis; type: functional, cell-based
U-937 [20] = test: Induction of cell differentiation in human U937 cells assessed as increase of CD11b and CD14 expression at 250 to 500 uM after 72 hrs by FACS flow cytometer analysis; type: functional, cell-based
U-937 [21] = test: Induction of apoptosis in human U937 cells assessed as increase of caspase-9 cleavage at 250 uM after 12 hrs by Western blot analysis; type: functional, cell-based
U-937 [22] = test: Induction of apoptosis in human U937 cells assessed as active 11 kDa fragment of caspase-3 at 250 uM after 24 hrs by Western blot analysis; type: functional, cell-based
U-937 [23] = test: Induction of apoptosis in human U937 cells assessed as PARP cleavage at 250 uM after 24 hrs by Western blot analysis; type: functional, cell-based
U-937 [24] = test: Induction of apoptosis in human U937 cells assessed as activation of caspase-3 at 250 uM after 24 hrs by colorimetric assay; type: functional, cell-based
U-937 [25] = test: Induction of apoptosis in human U937 cells assessed as phosphatidylserine expression in plasma membrane at 250 uM after 24 hrs by Annexin V-FITC double staining; type: functional, cell-based
U-937 [26] = test: Cell cycle arrest in human U937 cells assessed as accumulation at sub-G0/G1 phase at 250 uM after 24 hrs using propidium iodide staining by FACS analysis; type: functional, cell-based
U-937 [27] = test: Induction of apoptosis in human U937 cells assessed as reduction of normal cells at 250 uM after 24 hrs by Annexin V-FITC double staining; type: functional, cell-based
PBMC = test: Cytotoxicity against human PBMC at 250 uM after 48 hrs by trypan blue assay; type: cell-based
Jurkat [28] = test: Induction of apoptosis in human Jurkat cells assessed as activation of caspase-3-mediated PARP cleavage at 250 uM after 24 hrs by colorimetric assay; type: functional, cell-based
U-937 [29] = test: Pro-oxidant activity in human U937 cells assessed as DCF-DA oxidation at 10 to 250 uM by fluorescence assay; type: functional, cell-based; details: TDE = time-dependent effect
U-937 [30] = test: Pro-oxidant activity in human U937 cells assessed as DCF-DA oxidation up to 6 hrs by fluorescence assay; type: functional, cell-based
U-937 [31] = test: Induction of cell differentiation in human U937 cells assessed as increase of rhC5a-induced response at 50 uM after 72 hrs by FACS flow cytometer analysis; type: functional, cell-based
U-937 [32] = test: Induction of cell differentiation in human U937 cells assessed as increase of CD88 expression at 50 uM after 72 hrs by FACS flow cytometer analysis; type: functional, cell-based
U-937 [33] = test: Induction of cell differentiation in human U937 cells assessed as increase of CD11b and CD14 expression at 50 uM after 72 hrs by FACS flow cytometer analysis; type: functional, cell-based
U-937 [34] = test: Induction of apoptosis in human U937 cells assessed as activation of caspase-3 at 250 uM after 24 hrs by colorimetric assay in presence of caspase-8 inhibitor Z-LETD-FMK; type: functional, cell-based
U-937 [35] = test: Induction of apoptosis in human U937 cells assessed as increase of caspase-8 cleavage at 250 uM after 12 hrs by Western blot analysis; type: functional, cell-based
U-937 [36] = test: Induction of apoptosis in human U937 cells assessed as activation of caspase-3 at 250 uM after 24 hrs by colorimetric assay in presence of caspase-9 inhibitor Z-LEHD-FMK; type: functional, cell-based
U-937 [37] = test: Induction of apoptosis in human U937 cells assessed as increase of caspase-9 cleavage at 250 uM by Western blot analysis; type: functional, cell-based; details: TDE = time-dependent effect

Structure (SMILES): Cc1cc(O)cc(=O)o1
CC50 (U-937 [1]): > 2 mM | IC50 (U-937 [2]): > 2 mM | Activity [3]: Not Active | Activity (U-937 [4]): Active

Structure (SMILES): COc1ccc(/C=C/C(=O)O)cc1OC
CC50 (U-937 [1]): > 2 mM | IC50 (U-937 [2]): > 2 mM | Activity [3]: Active

Structure (SMILES): O=C(O)CCc1ccc(O)c(O)c1 [DIHYDROCAFFEIC ACID]
Activity (U-937 [6]): inactive | Activity (U-937 [7]): inactive | Activity (U-937 [8]): Active | colony formation inhibition (active/not active) (U-937 [9]): inactive | CC50 (U-937 [1]): > 2 mM | IC50 (U-937 [2]): 0.213 mM | Activity (U-937 [10]): Active | Activity (Jurkat [11]): Active | Activity (U-937 [12]): inactive | Activity (Jurkat [13]): Active | Activity (Jurkat [14]): inactive | Activity (Jurkat [15]): Active | Activity (U-937 [16]): inactive | Activity [17]: Active | Activity [18]: Active | Activity [3]: Active | Activity (U-937 [19]): Active | Activity (U-937 [20]): Active

Structure (SMILES): O=C(O)/C=C/c1ccc(O)cc1 [COUMARIC ACID]
CC50 (U-937 [1]): > 2 mM | IC50 (U-937 [2]): > 2 mM | Activity (U-937 [4]): inactive

Structure (SMILES): Cc1cc(=O)oc2cc(O)ccc12 [HYMECROMONE]
Activity (U-937 [5]): inactive | colony formation inhibition (active/not active) (U-937 [9]): inactive | CC50 (U-937 [1]): > 2 mM | IC50 (U-937 [2]): 0.711 mM | Activity (U-937 [16]): inactive | Activity (U-937 [4]): Active

Structure (SMILES): Cc1cc(=O)oc2cc(O)cc(O)c12 [5,7-DIHYDROXY-4-METHYLCOUMARIN]
Activity (U-937 [5]): inactive | CC50 (U-937 [1]): > 2 mM | IC50 (U-937 [2]): > 2 mM | Activity (U-937 [4]): Active

Structure (SMILES): O=c1cccco1
CC50 (U-937 [1]): > 2 mM | IC50 (U-937 [2]): > 2 mM | Activity [3]: Not Active | Activity (U-937 [4]): Active

More lines, main results first:

IC50 (U-937 [2]): 0.259 mM
Structure (SMILES): Cc1cc(O)nc2cc(O)ccc12
Activity (U-937 [5]): inactive | CC50 (U-937 [1]): > 1 mM | Activity (U-937 [4]): Active

IC50 (U-937 [2]): 0.454 mM
Structure (SMILES): CC(=O)c1c(O)ccc2c(C)cc(=O)oc12
Activity (U-937 [5]): inactive | CC50 (U-937 [1]): > 1 mM | Activity (U-937 [4]): Active

IC50 (U-937 [2]): > 2 mM | Activity [3]: Not Active
Structure (SMILES): Cc1cc(C)oc(=O)c1
CC50 (U-937 [1]): > 2 mM | Activity (U-937 [4]): Active

IC50 (U-937 [2]): 0.0832 mM | Activity [17]: Active | Activity [18]: Active | Activity [3]: Active
Structure (SMILES): Cc1cc(=O)oc2c(O)c(O)ccc12 [4-METHYLDAPHNETIN]
Activity (U-937 [21]): Active | Activity (U-937 [22]): Active | Activity (U-937 [23]): Active | Activity (U-937 [24]): Active | Activity (U-937 [25]): Active | colony formation inhibition (active/not active) (U-937 [9]): Active | Activity (U-937 [26]): Active | CC50 (U-937 [1]): 0.12 mM | Activity (U-937 [27]): Active | Activity (U-937 [12]): inactive | Activity (Jurkat [13]): Active | Activity (PBMC): Toxic | Activity (Jurkat [28]): Active | Activity (U-937 [29]): tde | Activity (U-937 [30]): Dose-dependent effect | Activity (U-937 [31]): Active | Activity (U-937 [32]): Active | Activity (U-937 [33]): Active | Activity (U-937 [34]): Active | Activity (U-937 [35]): inactive | Activity (U-937 [36]): inactive | Activity (U-937 [37]): tde
